This is an account of results in patent US12171732B2, “Compositions and use of N-chlorotaurine for treatment and prevention of respiratory infections” (priority 2021, dated 2024).

SMILES strings stand for the structures. Like-named read-outs stand apart in the source and are kept apart here. A value given as a limit tells only on which side of the number the result lay.

One test deals with SARS-CoV-2. The format is in vivo, human. The settings on record: Example 3 patient, Day 5, first 1% NCT nasal spray, 2 puffs in each nostril.
The subject of test [1] is SARS-CoV-2 B.1.351 (Beta). Type of test: cell-based. The settings on record: 1% NCT, 37° C.
For test [2], the system named is SARS-CoV-2 B.1.1.7 (Alpha). The format is cell-based. The settings on record: 1% NCT, 37° C.

In the case of `O=S(=O)(O)CCNCl` [NCT, N-chlorotaurine], in the test on SARS-CoV-2, the “time until nasal passages cleared and nasal secretion dried up” value was at most 30 min. Moreover, the “reduction of infected cells” value in test [1] (after 1 min (not significant, p=0.313)) is reported as 0-48%; in test [1] (after 5 min) it was 54-72%; in test [1] (after 10 min), 82-97%; in test [1] (after 20 min), 99-100%; in test [1] (after 30 min), 100%; in test [2] (after 1 min), 42-54%. Further, the “reduction of infected cells” value was 50-71% in test [2] (after 5 min), 62-99% in test [2] (after 10 min), 99-100% in test [2] (after 20 min) and 100% in test [2] (after 30 min).
